These results are taken from publication PMC5423295, “Positive Modulatory Interactions of NMDA Receptor GluN1/2B Ligand Binding Domains Attenuate Antagonists Activity” (Frontiers in Pharmacology, 2017).

By IC50 is commonly meant the concentration at which inhibition is half-maximal.

Assay in all cases: two-electrode voltage clamp, Xenopus oocytes
Assay type in all cases: cell-based
What all share (details): read-out: EC50 or IC50
In general terms: In two-electrode clamp one electrode senses voltage and the other passes current.

The target of assay [1] is T1, GluN1/2B NMDA receptor (GluN1a + GluN2B) (Rattus norvegicus, UniProt P35439+Q00960).
T1 construct: gene Grin1; cRNAs 1:1-3 in Xenopus oocytes; heterotetramer

Assay [2] has as its target T2, GluN1/2B NMDA receptor (GluN1a + GluN2B) (Rattus norvegicus, UniProt P35439+Q00960, P35439:Y535A).
T2 construct: gene Grin1; cRNAs 1:1-3 in Xenopus oocytes; heterotetramer
The source says:
(§1) two-electrode voltage clamp, Xenopus oocytes on GluN1/2B NMDA receptor (GluN1a + GluN2B)

Assay [3] concerns the target T3, GluN1/2B NMDA receptor (GluN1a + GluN2B) (Rattus norvegicus, UniProt P35439+Q00960, P35439:E781A).
T3 construct: gene Grin1; cRNAs 1:1-3 in Xenopus oocytes; heterotetramer
Description: as §1

T1 sequence (Q00960 27-1482, other chains not shown): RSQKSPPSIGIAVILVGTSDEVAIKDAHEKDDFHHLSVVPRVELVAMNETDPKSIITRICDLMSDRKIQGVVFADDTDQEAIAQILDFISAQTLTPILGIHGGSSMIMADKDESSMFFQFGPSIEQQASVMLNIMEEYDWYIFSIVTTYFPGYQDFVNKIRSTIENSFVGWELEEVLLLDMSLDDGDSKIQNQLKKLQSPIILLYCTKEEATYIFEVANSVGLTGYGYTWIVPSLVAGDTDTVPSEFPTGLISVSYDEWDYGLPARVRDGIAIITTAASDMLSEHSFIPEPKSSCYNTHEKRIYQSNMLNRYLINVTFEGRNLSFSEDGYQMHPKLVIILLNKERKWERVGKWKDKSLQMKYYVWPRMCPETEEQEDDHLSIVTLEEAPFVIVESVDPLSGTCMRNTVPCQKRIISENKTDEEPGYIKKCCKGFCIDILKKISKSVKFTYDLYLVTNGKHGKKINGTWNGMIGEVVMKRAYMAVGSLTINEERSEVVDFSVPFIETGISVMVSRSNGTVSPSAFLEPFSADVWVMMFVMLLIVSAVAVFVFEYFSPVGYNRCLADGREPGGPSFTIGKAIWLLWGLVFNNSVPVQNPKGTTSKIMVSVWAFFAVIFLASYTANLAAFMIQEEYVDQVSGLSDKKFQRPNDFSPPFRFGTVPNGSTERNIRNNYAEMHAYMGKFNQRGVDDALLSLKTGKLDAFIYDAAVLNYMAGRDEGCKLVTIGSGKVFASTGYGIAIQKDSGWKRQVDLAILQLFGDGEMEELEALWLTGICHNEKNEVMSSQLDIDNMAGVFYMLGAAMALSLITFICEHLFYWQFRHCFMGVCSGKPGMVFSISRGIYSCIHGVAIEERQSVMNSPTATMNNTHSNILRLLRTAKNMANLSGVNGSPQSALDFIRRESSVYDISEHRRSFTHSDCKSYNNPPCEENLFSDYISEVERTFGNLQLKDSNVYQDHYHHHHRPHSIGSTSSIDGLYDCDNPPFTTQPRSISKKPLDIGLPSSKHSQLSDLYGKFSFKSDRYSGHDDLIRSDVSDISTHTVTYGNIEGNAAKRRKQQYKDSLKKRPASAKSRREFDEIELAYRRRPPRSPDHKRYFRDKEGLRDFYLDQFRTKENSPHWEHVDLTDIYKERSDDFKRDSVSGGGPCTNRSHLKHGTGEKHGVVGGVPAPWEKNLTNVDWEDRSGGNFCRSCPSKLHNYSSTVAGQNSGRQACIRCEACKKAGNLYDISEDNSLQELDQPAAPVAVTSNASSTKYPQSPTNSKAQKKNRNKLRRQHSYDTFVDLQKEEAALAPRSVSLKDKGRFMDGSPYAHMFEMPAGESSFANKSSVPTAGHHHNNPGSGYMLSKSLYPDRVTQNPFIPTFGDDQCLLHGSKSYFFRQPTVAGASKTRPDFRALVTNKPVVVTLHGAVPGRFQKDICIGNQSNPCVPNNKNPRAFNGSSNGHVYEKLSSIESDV
T2 sequence (Q00960 27-1482, other chains not shown): as above
T3 sequence (Q00960 27-1482, other chains not shown): as above

As for `NC(CCCP(=O)(O)O)C(=O)O` (racemic) [DL-AP5], in assay [1], the IC50 stood at 35700 ± 1300 nM.
In the case of `O=C(O)c1cc(O)c2c(Cl)cc(Cl)cc2n1` [5,7-DCKA], the figures for the 50% inhibitory concentration (IC50) in assay [1], in assay [2] and in assay [3] were 4630 ± 330 nM, 160 ± 20 nM and 610 ± 90 nM, respectively.
